In patent publication US20040235855A1, “Phospholipase C inhibitors for use in treating inflammatory disorders” (priority 2003, published 2004):

target: T1, human PLC-β2 (Homo sapiens, UniProt Q00722); assay: PLC assay using FlashPlates (96-well, immobilized [3H]PIP2 substrate); assay type: biochemical; conditions: purified recombinant human PLC-β2 or cytosolic human PLC-β2; hydrolysis of [3H]PIP2
T1 construct: made in house; host or cells: Sf9 cells (Spodoptera frugiperda), recombinant baculovirus
Source text: The hydrolysis of phosphatidylinositol-4,5-bisphosphate (PIP2) by a specific phospholipase C-β2 (PLC-β2) produces two intracellular messengers, diacylglycerol (DAG) and inositol 1,4,5-trisphosphate (IP3), which mediate the activation of protein kinase C and intracellular Ca^2+ release. A conventional organic solvent extraction method is widely used for PLC assays to isolate IP3 from the substrate PIP2. The conventional PLC-β2 assay, however is terminated by addition of acidified organic solvents and subsequent extraction and phase separation. […] Accordingly, a preferred method to test the compounds of the present invention, was developed utilizing a 96-well plate assay for PLC-β2 using immobilized radiolabeled substrate to quantitatively measure the reduction in the substrate level without a need for organic solvent extraction. The automated PLC-β2 assay described herein provides a convenient method for quantitative measurement of phospholipase C activities in a high throughput fashion. Ninety-six well Phospholipid FlashPlates were coated with 0.2 mL of 50 mM Tris/HCl (pH 7.4), 0.01% Ac-BSA and 50,000 cpm of […] (phosphatidylinositol-4,5-bisphosphate) at 4° C. for 72 h. The wells were aspirated and washed twice with PBS. The reactions were conducted directly in the wells in PLC reaction buffer containing 50 mM Tris/HCl (pH 7.2), 2.75 mM EDTA (pH 7.3), 80 mM KCl, 10 mM LiCl, 0.04% DOC and 2 mM CaCl2 in the absence or presence of the purified recombinant human PLC-β2 (prepared as described hereafter) or cytosolic human PLC-β2 from […]. Reduction of radioactivity was monitored by a Packard TopCount instrument (Packard Instrument Company, Conn., USA). […] The cells were grown in Grace's media supplemented with 10% (v/v) fetal bovine serum, 3.3 g/l yeastolate, 3.3 g/l lactalbumin hydrosylate, glutamine (6.4 mM final), 50 μg/ml gentamicin, and 50 μg/ml kanamycin. Suspension of Sf9 cells (1.0×10^6 cells/ml) were infected with 5 pfu/cell of recombinant baculovirus encoding PLC-β2 and incubated at 27° C. for 72 h. The cells were collected by centrifugation (500×g, 7 min, 4° C.) and disrupted by hypotonic lysis buffer containing 20 mM Tris/HCl, pH 7.4, 5 mM MgCl2, 2 mM EGTA, 200 μM PMSF, 200 μM benzamidine and 1 μM pepstatin A. The lysate was sonicated on ice and the nuclei and unbroken cells removed by centrifigation (500×g, 5 min, 4C.). The supernatant was recovered and clarified by centrifugation (34,000 rpm, 60 min, 4C.). The supernatant was used as a crude cytosolic fraction (Paterson, A., Boyer, J. L., Watts, V. J., Morris, A. J., Price, […]. (1995) Concentration of enzyme-dependent activation of PLC β1 and PLC β2 by Gα11 and βγ subunits. Cellular Signalling 7, 709-720). Crude cytosol prepared from Sf9 cells expressing PLC-β2 was purified initially by chromatography on a 10 ml column of Q-Sepharose FF, equilibrated in buffer A (25 mM HEPES, pH 7.2,2 mM DTT, 2 mM EDTA, 2 mM EGTA, 200 μM PMSF, 200 μM benzamidine, 1 μM pepstatin A containing 10 mM NaCl). The column was washed with 20 ml of equilibration buffer and eluted with a 200-ml gradient of 110-410 mM NaCl in buffer A. The fractions containing PLC activity were pooled and diluted with buffer A. The diluted enzyme was applied to a 4 ml column of heparin-SepharoseCL-6B equilibrated in buffer A and the column washed with 70 ml of buffer A. The column was eluted with 80 ml of gradient of 0-1.0 M NaCl in buffer A, the column eluate collected in 3 ml fractions. […]

T1 sequence (Q00722 whole entry): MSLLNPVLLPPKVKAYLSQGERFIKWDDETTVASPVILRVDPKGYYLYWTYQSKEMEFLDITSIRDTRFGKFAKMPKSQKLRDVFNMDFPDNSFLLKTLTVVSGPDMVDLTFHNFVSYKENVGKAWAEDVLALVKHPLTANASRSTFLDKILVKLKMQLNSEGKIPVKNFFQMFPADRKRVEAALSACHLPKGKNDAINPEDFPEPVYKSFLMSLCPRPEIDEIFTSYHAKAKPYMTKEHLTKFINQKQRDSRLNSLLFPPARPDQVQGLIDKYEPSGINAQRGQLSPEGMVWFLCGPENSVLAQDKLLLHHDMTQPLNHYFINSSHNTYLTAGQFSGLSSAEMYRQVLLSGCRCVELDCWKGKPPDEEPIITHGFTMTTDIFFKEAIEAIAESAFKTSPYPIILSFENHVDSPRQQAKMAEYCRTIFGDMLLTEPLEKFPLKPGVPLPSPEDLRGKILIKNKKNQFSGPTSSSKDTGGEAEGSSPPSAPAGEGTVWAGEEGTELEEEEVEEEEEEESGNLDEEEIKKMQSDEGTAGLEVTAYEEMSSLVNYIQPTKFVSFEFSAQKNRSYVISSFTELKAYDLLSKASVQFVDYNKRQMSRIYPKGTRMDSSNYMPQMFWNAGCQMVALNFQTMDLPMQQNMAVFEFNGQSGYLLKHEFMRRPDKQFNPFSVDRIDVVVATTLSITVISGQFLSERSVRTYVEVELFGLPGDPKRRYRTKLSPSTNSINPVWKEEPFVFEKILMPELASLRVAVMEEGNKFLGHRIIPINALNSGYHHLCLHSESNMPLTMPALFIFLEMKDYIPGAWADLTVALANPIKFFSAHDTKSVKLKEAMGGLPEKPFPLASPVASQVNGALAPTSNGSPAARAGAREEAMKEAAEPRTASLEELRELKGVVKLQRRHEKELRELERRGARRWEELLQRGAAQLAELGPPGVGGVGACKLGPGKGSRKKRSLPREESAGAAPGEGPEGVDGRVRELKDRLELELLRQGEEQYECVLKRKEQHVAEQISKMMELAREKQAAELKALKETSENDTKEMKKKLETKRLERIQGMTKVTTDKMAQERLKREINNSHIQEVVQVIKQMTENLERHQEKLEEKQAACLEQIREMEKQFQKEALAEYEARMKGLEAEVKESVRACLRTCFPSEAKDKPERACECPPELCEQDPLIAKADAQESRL

| Structure (SMILES) | IC50 [µM] |
| --- | --- |
| COc1ccccc1N1CCN(c2ccc(C(=O)N3CCNCC3)cc2NC(=O)Nc2ccccc2)CC1 [Cpd 49, N-[2-[4-(2-methoxyphenyl)-1-piperazinyl]-5-(1-piperazinylcarbonyl)phenyl]-N′-phenylurea] | > 25 |
| CN(C)c1ccc(NC(=O)Nc2cc(C(=O)N3CCNCC3)ccc2N2CCN(C(c3ccccc3)c3ccccc3)CC2)cc1 [Cpd 58, N-[4-(dimethylamino)phenyl]-N′-[2-[4-(diphenylmethyl)-1-piperazinyl]-5-(1-piperazinylcarbonyl)phenyl]-urea] | 7.8 |
| O=C(Nc1ccccc1)Nc1cc(C(=O)N2CCNCC2)ccc1N1CCN(C2CCCCC2)CC1 [Cpd 51, N-[2-(4-cyclohexyl-1-piperazinyl)-5-(1-piperazinylcarbonyl)phenyl]-N′-phenylurea] | > 25 |
| Cc1cc(C)cc(NC(=O)Nc2cc(C(N)=O)ccc2N2CCN(C(c3ccccc3)c3ccccc3)CC2)c1 [Cpd 7, 3-[[[(3,5-dimethylphenyl)amino]carbonyl]amino]-4-[4-(diphenylmethyl)-1-piperazinyl]-benzamide] | 5.3 |
| COc1ccc(NC(=O)Nc2cc(C(N)=O)ccc2N2CCN(C(c3ccc(F)cc3)c3ccc(F)cc3)CC2)c(OC)c1 [Cpd 18, 4-[4-[bis(4-fluorophenyl)methyl]-1-piperazinyl]-3-[[[(2,4-dimethoxyphenyl)amino]carbonyl]amino]-benzamide] | 4.6 |
| NC(=O)c1ccc(N2CCN(Cc3ccccc3)CC2)c(NC(=O)Nc2ccccc2)c1 [Cpd 2, 3-[[(phenylamino)carbonyl]amino]-4-[4-(phenylmethyl)-1-piperazinyl]-benzamide] | > 25 |
| NC(=O)c1ccc(N2CCCN(C(c3ccc(F)cc3)c3ccc(F)cc3)CC2)c(NC(=O)Nc2ccccc2)c1 [Cpd 81, 4-[4-[bis(4-fluorophenyl)methyl]hexahydro-1H-1,4-diazepin-1-yl]-3-[[(phenylamino)carbonyl]amino]-benzamide] | ~10 |
| CN1CCCN(C(=O)c2ccc(N3CCN(C(c4ccccc4)c4ccccc4)CC3)c(NC(=O)NC3CCCCC3)c2)CC1 [Cpd 31, N-cyclohexyl-N′-[2-[4-(diphenylmethyl)-1-piperazinyl]-5-[(hexahydro-4-methyl-1H-1,4-diazepin-1-yl)carbonyl]phenyl]-urea] | 6.6 |
| CN1CCN(C(=O)c2ccc(N3CCN(C(c4ccccc4)c4ccccc4)CC3)c(NC(=O)Nc3ccccc3)c2)CC1 [Cpd 23, N-[2-[4-(diphenylmethyl)-1-piperazinyl]-5-[(4-methyl-1-piperazinyl)carbonyl]phenyl]-N′-phenylurea] | 4.9 |
| NC(=O)c1ccc(N2CCCN(C(c3ccncc3)c3ccc(F)cc3)CC2)c(NC(=O)NC2CCCCC2)c1 (centres unmarked) [Cpd 80, 3-[[(cyclohexylamino)carbonyl]amino]-4-[4-[(4-fluorophenyl)-4-pyridinylmethyl]hexahydro-1H-1,4-diazepin-1-yl]-benzamide] | > 10 |
| COc1ccccc1N1CCN(c2ccc(C(N)=O)cc2NC(=O)Nc2ccccc2)CC1 [Cpd 1, 4-[4-(2-methoxyphenyl)-1-piperazinyl]-3-[[(phenylamino)carbonyl]amino]-benzamide] | 23.4 |
| COc1ccc(NC(=O)Nc2cc(C(=O)N3CCNCC3)ccc2N2CCN(C(c3ccccc3)c3ccccc3)CC2)cc1 [Cpd 43, N-[2-[4-(diphenylmethyl)-1-piperazinyl]-5-(1-piperazinylcarbonyl)phenyl]-N′-(4-methoxyphenyl)urea] | 5.7 |
| CCCCNC(=O)Nc1cc(C(=O)N2CCNCC2)ccc1N1CCN(C(c2ccccc2)c2ccccc2)CC1 [Cpd 56, N-butyl-N′-[2-[4-(diphenylmethyl)-1-piperazinyl]-5-(1-piperazinylcarbonyl)phenyl]-urea] | > 25 |
| COc1ccccc1NC(=O)Nc1cc(C(=O)N2CCNCC2)ccc1N1CCN(C(c2ccccc2)c2ccccc2)CC1 [Cpd 59, N-[2-[4-(diphenylmethyl)-1-piperazinyl]-5-(1-piperazinylcarbonyl)phenyl]-N′-(2-methoxyphenyl)-urea] | 5.4 |
| Cc1cc(C)cc(NC(=O)Nc2cc(C(=O)N3CCNCC3)ccc2N2CCN(C(c3ccccc3)c3ccccc3)CC2)c1 [Cpd 42, N-(3,5-dimethylphenyl)-N′-[2-[4-(diphenylmethyl)-1-piperazinyl]-5-(1-piperazinylcarbonyl)phenyl]-urea] | 5.6 |
| NC(=O)c1ccc(N2CCCN(C(c3ccncc3)c3ccc(F)cc3)CC2)c(NC(=O)Nc2ccccc2)c1 (centres unmarked) [Cpd 79, 4-[4-[(4-fluorophenyl)-4-pyridinylmethyl]hexahydro-1H-1,4-diazepin-1-yl]-3-[[(phenylamino)carbonyl]amino]-benzamide] | > 10 |
| O=C(Nc1ccccc1)Nc1cc(C(=O)N2CCNCC2)ccc1N1CCN(Cc2ccccc2)CC1 [Cpd 50, N-phenyl-N′-[2-[4-(phenylmethyl)-1-piperazinyl]-5-(1-piperazinylcarbonyl)phenyl]-urea] | > 25 |

Stronger by IC50, values ahead:

| IC50 [µM] | Structure (SMILES) |
| --- | --- |
| 4.3 | COc1ccc(NC(=O)Nc2cc(C(N)=O)ccc2N2CCN(C(c3ccc(F)cc3)c3ccc(F)cc3)CC2)cc1 [Cpd 20, 4-[4-[bis(4-fluorophenyl)methyl]-1-piperazinyl]-3-[[[(4-methoxyphenyl)amino]carbonyl]amino]-benzamide] |
| 2.9 | CN(C)c1ccc(NC(=O)Nc2cc(C(N)=O)ccc2N2CCN(C(c3ccc(F)cc3)c3ccc(F)cc3)CC2)cc1 [Cpd 19, 4-[4-[bis(4-fluorophenyl)methyl]-1-piperazinyl]-3-[[[[4-(dimethylamino)phenyl]amino]carbonyl]amino]-benzamide] |
| 3.1 | NC(=O)c1ccc(N2CCN(C(c3ccc(F)cc3)c3ccc(F)cc3)CC2)c(NC(=O)Nc2ccc3c(c2)OCO3)c1 [Cpd 14, 3-[[(1,3-benzodioxol-5-ylamino)carbonyl]amino]-4-[4-[bis(4-fluorophenyl)methyl]-1-piperazinyl]-benzamide] |
| 0.98 | O=C(Nc1ccccc1)Nc1ccc(C(=O)N2CCNCC2)cc1N1CCN(C(c2ccc(F)cc2)c2ccc(F)cc2)CC1 [Cpd 90, N-[2-[4-[bis(4-fluorophenyl)methyl]-1-piperazinyl]-4-(1-piperazinylcarbonyl)phenyl]-N′-phenyl-urea] |
| 0.95 | O=C(Nc1ccccc1)Nc1cc(C(=O)N2CCNCC2)ccc1N1CCN(C(c2ccccc2)c2ccc(Cl)cc2)CC1 (centres unmarked) [Cpd 60, N-[2-[4-[(4-chlorophenyl)phenylmethyl]-1-piperazinyl]-5-(1-piperazinylcarbonyl)phenyl]-N′-phenyl-urea] |
| 1.7 | O=C(Nc1ccccc1)Nc1cc(C(=O)N2CCNCC2)ccc1N1CCN(C(c2ccc(F)cc2)c2ccc(F)cc2)CC1 [Cpd 46, N-[2-[4-[bis(4-fluorophenyl)methyl]-1-piperazinyl]-5-(1-piperazinylcarbonyl)phenyl]-N′-phenylurea] |
| 3.9 | CC(C)C[C@H](NC(=O)c1ccc(N2CCN(C(c3ccccc3)c3ccccc3)CC2)c(NC(=O)Nc2ccccc2)c1)C(=O)O [Cpd 32, N-[4-[4-(diphenylmethyl)-1-piperazinyl]-3-[[(phenylamino)carbonyl]amino]benzoyl]-L-leucine] |
| 1.2 | NC(=O)c1ccc(N2CCN(C(c3ccccc3)c3ccccc3)CC2)c(NC(=O)Nc2ccccc2)c1 [Cpd 8, 4-[4-(diphenylmethyl)-1-piperazinyl]-3-[[(phenylamino)carbonyl]amino]-benzamide] |
| 1.5 | NC(=O)c1ccc(N2CCN(C(c3ccc(F)cc3)c3ccc(F)cc3)CC2)c(NC(=O)Nc2ccccc2)c1 [Cpd 3, 4-[4-[bis(4-fluorophenyl)methyl]-1-piperazinyl]-3-[[(phenylamino)carbonyl]amino]-benzamide] |
